Measured values from PubChem BioAssay (NCI).
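How tested: cells in 96-well plates exposed to compound for 48 hours at five concentrations. Here, GI50 denotes the concentration required for 50% inhibition of growth. TGI: total growth inhibition.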

Legend:
Experiment in all cases: NCI-60 cell line screen, 48 h
786-0 renal = system: 786-0 renal
A498 renal = system: A498 renal
A549 NSCLC = system: A549 NSCLC
ACHN renal = system: ACHN renal
BT-549 breast = system: BT-549 breast
CAKI-1 renal = system: CAKI-1 renal
CCRF-CEM leukemia = system: CCRF-CEM leukemia
COLO 205 colon = system: COLO 205 colon
DU-145 prostate = system: DU-145 prostate
EKVX NSCLC = system: EKVX NSCLC
HCC-2998 colon = system: HCC-2998 colon
HCT-116 colon = system: HCT-116 colon
HCT-15 colon = system: HCT-15 colon
HL-60(TB) leukemia = system: HL-60(TB) leukemia
HOP-62 NSCLC = system: HOP-62 NSCLC
HOP-92 NSCLC = system: HOP-92 NSCLC
HS 578T breast = system: HS 578T breast
HT29 colon = system: HT29 colon
K-562 leukemia = system: K-562 leukemia
KM12 colon = system: KM12 colon
LOX IMVI melanoma = system: LOX IMVI melanoma
M14 melanoma = system: M14 melanoma
MALME-3M melanoma = system: MALME-3M melanoma
MCF7 breast = system: MCF7 breast
MDA-MB-231 breast = system: MDA-MB-231 breast
MDA-MB-435 = system: MDA-MB-435
MOLT-4 leukemia = system: MOLT-4 leukemia
NCI-H226 lung = system: NCI-H226 lung
NCI-H23 lung = system: NCI-H23 lung
NCI-H460 lung = system: NCI-H460 lung
NCI-H522 lung = system: NCI-H522 lung
NCI/ADR-RES ovarian = system: NCI/ADR-RES ovarian
OVCAR-3 ovarian = system: OVCAR-3 ovarian
OVCAR-4 ovarian = system: OVCAR-4 ovarian
OVCAR-5 ovarian = system: OVCAR-5 ovarian
OVCAR-8 ovarian = system: OVCAR-8 ovarian
PC-3 prostate = system: PC-3 prostate
RPMI-8226 leukemia = system: RPMI-8226 leukemia
RXF 393 renal = system: RXF 393 renal
SF-268 CNS = system: SF-268 CNS
SF-295 CNS = system: SF-295 CNS
SF-539 CNS = system: SF-539 CNS
SK-MEL-2 melanoma = system: SK-MEL-2 melanoma
SK-MEL-28 melanoma = system: SK-MEL-28 melanoma
SK-MEL-5 melanoma = system: SK-MEL-5 melanoma
SK-OV-3 ovarian = system: SK-OV-3 ovarian
SNB-19 CNS = system: SNB-19 CNS
SNB-75 CNS = system: SNB-75 CNS
SR leukemia = system: SR leukemia
SW-620 colon = system: SW-620 colon
T-47D breast = system: T-47D breast
TK-10 renal = system: TK-10 renal
U251 CNS = system: U251 CNS
UACC-257 melanoma = system: UACC-257 melanoma
UACC-62 melanoma = system: UACC-62 melanoma
UO-31 renal = system: UO-31 renal

## CCN(CC)Cc1cc(Nc2cc(C(F)(F)F)c(C#N)c3nc4ccccc4n23)ccc1O
786-0 renal
  GI50: 2.57 µM
  TGI: 9.98 µM
A498 renal
  GI50: 1.44 µM
  TGI: 5.85 µM
A549 NSCLC
  GI50: 3.17 µM
  TGI: 12.5 µM
ACHN renal
  GI50: 2.24 µM
  TGI: 10.3 µM
BT-549 breast
  GI50: 2.36 µM
  TGI: 8.75 µM
CAKI-1 renal
  GI50: 1.77 µM
  TGI: 11.2 µM
CCRF-CEM leukemia
  GI50: 2.79 µM
  TGI: > 100 µM
COLO 205 colon
  GI50: 1.41 µM
  TGI: 3.08 µM
DU-145 prostate
  GI50: 2.78 µM
  TGI: 15.7 µM
EKVX NSCLC
  GI50: 0.526 µM
  TGI: 8.39 µM
HCC-2998 colon
  GI50: 2.85 µM
  TGI: 15.2 µM
HCT-116 colon
  GI50: 1.6 µM
  TGI: 4.45 µM
HCT-15 colon
  GI50: 0.78 µM
  TGI: 2.76 µM
HL-60(TB) leukemia
  GI50: 2.96 µM
  TGI: 8.37 µM
HOP-62 NSCLC
  GI50: 3.05 µM
  TGI: 11.4 µM
HOP-92 NSCLC
  GI50: 0.59 µM
  TGI: 3.48 µM
HS 578T breast
  GI50: 2.39 µM
  TGI: 12.1 µM
HT29 colon
  GI50: 2.5 µM
  TGI: 12.2 µM
K-562 leukemia
  GI50: 3.1 µM
  TGI: > 100 µM
KM12 colon
  GI50: 2.42 µM
  TGI: 8.22 µM
LOX IMVI melanoma
  GI50: 2.33 µM
  TGI: 13.1 µM
M14 melanoma
  GI50: 2.73 µM
  TGI: 13.9 µM
MALME-3M melanoma
  GI50: 1.19 µM
  TGI: 5.82 µM
MCF7 breast
  GI50: 1.75 µM
  TGI: 10.7 µM
MDA-MB-231 breast
  GI50: 1.95 µM
  TGI: 5.33 µM
MDA-MB-435
  GI50: 2.29 µM
  TGI: 13.5 µM
MOLT-4 leukemia
  GI50: 2.46 µM
  TGI: 75 µM
NCI-H226 lung
  GI50: 1.34 µM
  TGI: 10.4 µM
NCI-H23 lung
  GI50: 1.21 µM
  TGI: 8.29 µM
NCI-H460 lung
  GI50: 1.59 µM
  TGI: 10.7 µM
NCI-H522 lung
  GI50: 1.05 µM
  TGI: 2.74 µM
NCI/ADR-RES ovarian
  GI50: 2.64 µM
  TGI: 15.9 µM
OVCAR-3 ovarian
  GI50: 1.83 µM
  TGI: 10.4 µM
OVCAR-4 ovarian
  GI50: 1 µM
  TGI: 2.59 µM
OVCAR-5 ovarian
  GI50: 4.84 µM
  TGI: 23.4 µM
OVCAR-8 ovarian
  GI50: 2.68 µM
  TGI: 12.6 µM
PC-3 prostate
  GI50: 2.32 µM
  TGI: 7.87 µM
RPMI-8226 leukemia
  GI50: 0.812 µM
  TGI: 4.96 µM
RXF 393 renal
  GI50: 1.8 µM
  TGI: 5.81 µM
SF-268 CNS
  GI50: 2.51 µM
  TGI: 18.3 µM
SF-295 CNS
  GI50: 1.2 µM
  TGI: 3.81 µM
SF-539 CNS
  GI50: 2.7 µM
  TGI: 11 µM
SK-MEL-2 melanoma
  GI50: 1.35 µM
  TGI: 7.81 µM
SK-MEL-28 melanoma
  GI50: 2.69 µM
  TGI: 17.4 µM
SK-MEL-5 melanoma
  GI50: 0.271 µM
  TGI: 1.66 µM
SK-OV-3 ovarian
  GI50: 1.98 µM
  TGI: 8.59 µM
SNB-19 CNS
  GI50: 4.39 µM
  TGI: 36.2 µM
SNB-75 CNS
  GI50: 1.41 µM
  TGI: 7.54 µM
SR leukemia
  GI50: 3.72 µM
  TGI: > 100 µM
SW-620 colon
  GI50: 2.61 µM
  TGI: 10.2 µM
T-47D breast
  GI50: 0.452 µM
  TGI: 3.65 µM
TK-10 renal
  GI50: 1.47 µM
  TGI: 9.43 µM
U251 CNS
  GI50: 1.5 µM
  TGI: 6.47 µM
UACC-257 melanoma
  GI50: 1.93 µM
  TGI: 7.86 µM
UACC-62 melanoma
  GI50: 1.22 µM
  TGI: 3.96 µM
UO-31 renal
  GI50: 1.12 µM
  TGI: 3.1 µM
